In US5248684A, “Certain 2-oxo-quinoline carboxylates or corresponding carboxamides useful as anti-emetics and suppressants of migraine” (Kyowa Hakko Kogyo Co., Ltd., priority 1990, dated 1993):

Assays:
[1] = system: Cisplatin-induced vomiting; test: Activity against CisPlatin-induced vomiting; type: in vivo, Suncus murinus; conditions: 30 min before Cisplatin 40 mg/kg i.p.; for Number of Vomiting (Episodes) (mean ± S.E.M.): 5 to 120 min, control 28.0 ± 6.7; for Latency (mean ± S.E.M.): time to first vomiting, control 35.1 ± 4.4
Procedure: b) Activity against CisPlatin-induced vomiting
Female and male Suncus murinus animals weighing 23 to 68 g were used, one group consisting of 5 to 10 animals. According to the method of Matsuki et al. (Japan J. Pharmacol., 48, 303 (1988)], the animals were isolated in metal mesh cage (one animal/one cage). One hour after, the test compound or physiological saline (control) was intraperitoneally administered (i.p.) in a volume of 0.1 ml/10 g of body weight. Further 30 minutes after administration of the test compound, Cisplatin (40 mg/kg) was intraperitoneally administered. After administration of Cisplatin, a time period (latency) for the first vomiting and the number of frequencies (episodes) of vomiting caused in the period of 5 to 120 minutes after administration were determined. The latency and the number of frequencies in the test compound administered group were compared with those in the control group. The test of significance was performed by Student's t-test.

ddY strain male mice = test: Acute toxicity (MLD, Minimum Lethal Dose); type: in vivo; conditions: 7 days observation
Procedure: The test compound was orally and intraperitoneally administered to ddY strain male mice weighing 20 to 25 g. MLD (Minimum Lethal Dose) was determined by observing the mortality for 7 days after the administration.

Compound	Number of Vomiting (Episodes) (mean ± S.E.M.) ([1]; 0.1 mg/kg i.p.)	Latency (mean ± S.E.M.) ([1]; 0.1 mg/kg i.p.)	Number of Vomiting (Episodes) (mean ± S.E.M.) ([1]; 0.5 mg/kg i.p., *p < 0.05)	Latency (mean ± S.E.M.) ([1]; 0.5 mg/kg i.p., *p < 0.05)	MLD (Minimum Lethal Dose) (ddY strain male mice; i.p.)	MLD (Minimum Lethal Dose) (ddY strain male mice; p.o.)
CCCCn1c(=O)cc(C(=O)O[C@H]2C[C@H]3CC[C@@H](C2)N3C)c2ccccc21 [Compound 1Sa, Endo-(8-methyl-8-azabicyclo[3.2.1]oct-3-yl)-1-(n-butyl)-2-oxo-1,2-dihydro-4-quinolinecarboxylate]	18.0 ± 1.6 Episodes	44.3 ± 2.0 min	6.8 ± 2.0 Episodes	71.5 ± 12.9 min	100 mg/kg	200 mg/kg
CCCn1c(=O)cc(C(=O)O[C@H]2C[C@H]3CC[C@@H](C2)N3C)c2ccccc21 [Compound 2Sa, Endo-(8-methyl-B-azabicyclo[3.2.1]oct-3-yl)2-oxo-l-(n-propyl)-1,2-dihydro-4-quinolinecarboxylate]	–	–	–	–	100 mg/kg	200 mg/kg
CC(C)n1c(=O)cc(C(=O)O[C@H]2C[C@H]3CC[C@@H](C2)N3C)c2ccccc21 [Compound 3Sa, Endo-(8-methyl-8-azabicyclo[3.2.1]oct-3-yl)l-isopropyl-2-oxo-1,2-dihydro-4-quinolinecarboxylate]	–	–	–	–	100 mg/kg	200 mg/kg
CCCCn1c(=O)cc(C(=O)N[C@H]2C[C@H]3CC[C@@H](C2)N3C)c2ccccc21 [Compound 6Sa, Endo-N-(8-methyl-8-azabicyclo[3.2.1]oct-3-yl)-1-(n-butyl)-2-oxo-1,2-dihydro-4-quinolinecarboxamide]	–	–	–	–	> 100 mg/kg	> 300 mg/kg
CCCn1c(=O)cc(C(=O)N[C@H]2C[C@H]3CC[C@@H](C2)N3C)c2ccccc21 [Compound 7Sa, Endo-N-(8-methyl-8-azabicyclo[3.2.1]oct-3-yl)-1-(n-propyl)-2-oxo-1,2-dihydro-4-quinolinecarboxamide]	–	–	–	–	> 100 mg/kg	> 300 mg/kg
CN1[C@@H]2CC[C@H]1C[C@@H](NC(=O)c1cc(=O)n(C)c3ccccc13)C2 [Compound 8Sa, Endo-N-(8-methyl-8-azabicyclo[3.2.1]oct-3-yl)-1-methyl-2-oxo-1,2-dihydro-4-quinolinecarboxamide]	–	–	–	–	> 100 mg/kg	> 300 mg/kg
CCCCn1c(=O)cc(C(=O)N[C@@H]2C[C@H]3CC[C@@H](C2)N3C)c2ccccc21 [Compound 9Sa, Exo-N-(8-methyl-8-azabicyclo[3.2.1]oct-3-yl)-1-(n-butyl)-2-oxo-1,2-dihydro-4-quinolinecarboxamide]	–	–	–	–	100 mg/kg	> 300 mg/kg
CCCCn1c(=O)cc(C(=O)N[C@H]2C[C@H]3CCC[C@@H](C2)N3C)c2ccccc21 [Compound 10Sa, Endo-N-(9-methyl-9-azabicyclo[3.3.1]non-3-yl)-1-(n-butyl)-2-oxo-1,2-dihydro-4-quinolinecarboxamide]	–	–	–	–	100 mg/kg	300 mg/kg
CCCCn1c(=O)c(C(=O)N[C@H]2C[C@H]3CC[C@@H](C2)N3C)c(O)c2ccccc21 [Compound 11Sa, Endo-N-(8-methyl-8-azabicyclo[3.2.1]oct-3-yl)-1-(n-butyl)-4-hydroxy-2-oxo-1,2-dihydro-3-quinolinecarboxamide]	–	–	–	–	> 100 mg/kg	> 300 mg/kg
CCn1c(=O)cc(C(=O)O[C@H]2C[C@H]3CC[C@@H](C2)N3C)c2ccccc21 [Compound 13Sa, Endo-(8-methyl-8-azabicyclo[3.2.1]oct-3-yl) 1-ethyl-2-oxo-1,2-dihydro-4-quinolinecarboxylate]	–	–	–	–	100 mg/kg	200 mg/kg
CC(C)Cn1c(=O)cc(C(=O)O[C@H]2C[C@H]3CC[C@@H](C2)N3C)c2ccccc21 [Compound 14Sa, Endo-(8-methyl-8-azabicyclo[3.2.1]oct-3-yl) 1-isobutyl-2-oxo-1,2-dihydro-4-quinolinecarboxylate]	–	–	–	–	50 mg/kg	200 mg/kg
CC(C)CCn1c(=O)cc(C(=O)O[C@H]2C[C@H]3CC[C@@H](C2)N3C)c2ccccc21 [Compound 15Sa, Endo-(8-methyl-8-azabicyclo[3.2.1]oct-3-yl) 1-isopentyl-2-oxo-1,2-dihydro-4-quinolinecarboxylate]	–	–	–	–	100 mg/kg	300 mg/kg
CCCCCn1c(=O)cc(C(=O)O[C@H]2C[C@H]3CC[C@@H](C2)N3C)c2ccccc21 [Compound 16Sa, Endo-(8-methyl-8-azabicyclo[3.2.1]oct-3-yl)2-oxo-1-n-pentyl-1,2-dihydro-4-quinolinecarboxylate]	–	–	–	–	100 mg/kg	300 mg/kg
CCCCCCn1c(=O)cc(C(=O)O[C@H]2C[C@H]3CC[C@@H](C2)N3C)c2ccccc21 [Compound 17Sa, Endo-(8-methyl-8-azabicyclo[3.2.1]oct-3-yl) 1-(n-hexyl)-2-oxo-1,2-dihydro-4-quinolinecarboxylate]	–	–	–	–	100 mg/kg	> 300 mg/kg
CN1[C@@H]2CC[C@H]1C[C@@H](OC(=O)c1cc(=O)n(Cc3ccccc3)c3ccccc13)C2 [Compound 18Sa, Endo-(8-methyl-8-azabicyclo[3.2.1]oct-3-yl) 1-benzyl-2-oxo-1,2-dihydro-4-quinolinecarboxylate]	–	–	–	–	100 mg/kg	> 300 mg/kg
CN1[C@@H]2CC[C@H]1C[C@@H](OC(=O)c1cc(=O)n(-c3ccccc3)c3ccccc13)C2 [Compound 19Sa, Endo-(8-methyl-8-azabicyclo[3.2.1]oct-3-yl) 2-oxo-1-phenyl-1,2-dihydro-4-quinolinecarboxylate]	–	–	–	–	100 mg/kg	200 mg/kg
CCCCn1c(=O)c(CC)c(C(=O)O[C@H]2C[C@H]3CC[C@@H](C2)N3C)c2ccccc21 [Compound 20Sa, Endo-(8-methyl-8-azabicyclo[3.2.1)oct-3-yl) 1-(n-butyl)-3-ethyl-2-oxo-1,2-dihydro-4-quinolinecarboxylate]	–	–	–	–	100 mg/kg	200 mg/kg
CN1[C@@H]2CC[C@H]1C[C@@H](OC(=O)c1c(O)c3cccnc3n(-c3ccccc3)c1=O)C2 [Compound 24Sa, Endo-(8-methyl-8-azabicyclo[3.2.1]oct-3-yl) 4-hydroxy-2-oxo-1-phenyl-1,2-dihydro-1,8-naphthylidine-3-carboxylate]	–	–	–	–	> 100 mg/kg	> 300 mg/kg
CCCCn1c(=O)c(O)c(C(=O)N[C@H]2C[C@H]3CC[C@@H](C2)N3C)c2ccccc21 [Compound 29Sa, Endo-N-(8-methyl-8-azabicyclo[3.2.1]oct-3-yl)-1-n-butyl-3-hydroxy-2-oxo-1,2-dihydro-4-quinolinecarboxamide]	–	–	–	–	> 100 mg/kg	> 300 mg/kg
CN1[C@@H]2CC[C@H]1C[C@@H](NC(=O)c1c(O)c3ccccc3n(-c3ccccc3)c1=O)C2 [Compound 30Sa, Endo-N-(8-methyl-8-azabicyclo[3.2.1]oct-3-yl)-4-hydroxy-2-oxo-1-phenyl-1,2-dihydro-3-quinolinecarboxamide]	–	–	–	–	100 mg/kg	> 300 mg/kg
CCCCn1c(=O)c(C(=O)N[C@H]2C[C@H]3CC[C@@H](C2)N3C)c(O)c2cccnc21 [Compound 32Sa, Endo-N-(8-methyl-azabicyclo[3.2.1]oct-3-yl)-1-(butyl)-4-hydroxy-2-oxo-1,2-dihydro-1,8-naphthyridine-3-carboxamide]	–	–	–	–	100 mg/kg	> 300 mg/kg
